Columns and labels:
[1] = biological target: T1, pancreatic lipase (Homo sapiens, UniProt P16233); assay: MBT before and after Orlistat treatment in healthy adult subjects (pharmaceutically induced fat malabsorption); type: in vivo
T1 construct: from tissue; host or cells: in vivo: endogenous pancreatic secretion in the small intestine of healthy adult subjects
T1 sequence (P16233 17-465): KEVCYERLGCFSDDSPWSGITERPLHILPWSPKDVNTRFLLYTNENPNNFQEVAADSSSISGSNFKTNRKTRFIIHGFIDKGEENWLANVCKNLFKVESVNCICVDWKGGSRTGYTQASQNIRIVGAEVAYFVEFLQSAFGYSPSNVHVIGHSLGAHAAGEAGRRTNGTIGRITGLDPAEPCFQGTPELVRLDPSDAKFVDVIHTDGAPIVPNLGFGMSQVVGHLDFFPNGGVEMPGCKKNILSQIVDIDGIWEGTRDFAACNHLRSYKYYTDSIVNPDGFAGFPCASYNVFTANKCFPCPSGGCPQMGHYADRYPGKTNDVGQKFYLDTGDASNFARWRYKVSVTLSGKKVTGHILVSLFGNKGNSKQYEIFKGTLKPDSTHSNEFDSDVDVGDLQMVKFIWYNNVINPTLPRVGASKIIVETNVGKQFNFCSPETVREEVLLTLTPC
T1 sequence (P04118 23-112 partner): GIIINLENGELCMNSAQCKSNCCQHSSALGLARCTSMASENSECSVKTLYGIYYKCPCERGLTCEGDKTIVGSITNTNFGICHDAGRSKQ
Description: Analysis of the baseline and subsequent half-hourly or hourly serum samples taken for up to eight hours for the three doses of pentadecanoic acid (PA) and triglyceride containing heptadecanoic fatty acids (THA) are used to create time-dependent measured and normalized measured (see below) dosage response curves. Each concentration is analyzed independently for each subject and as a complete set for all subjects to determine the rates of absorption, distribution, and elimination for each of the measured fatty acids PA and heptadecanoic acid (HA) and the pancreatic enzyme activity for the hydrolysis of THA. The simplest model to determine a coefficient of fat absorption and an index of pancreatic enzyme activity is derived from the set of normal subjects and subsequently applied to subjects before and during therapy with a pancreatic enzyme inhibitor (Orlistat). Finally, this model is applied to subjects with CF receiving various levels of enzyme therapy to determine their coefficient of fat absorption and their index of enzymatic activity. In the simplest possible situation, the measured levels of both HA and PA are dose independent and reach an early and prolonged steady state in either whole plasma or in the chylomicron fraction. In that case, the normalized PA and HA can be compared against a CFA measured using the conventional standard 72 hour stool and diet collection method for the same patient and an appropriate conversion factor (which may be dependent upon the BMI) can be determined from the data. The ratio of the normalized HA to the normalized PA is defined as an index reflecting the pancreatic enzymatic activity profile during the absorption phase. The data is analyzed for any dependence of this index upon the patient's age or BMI. The comparisons before and after therapy with Orlistat are expected to reflect a decrease in this index of approximately 70%. […]

[2] = Malabsorption Blood Test (MBT): serum levels of PA and HA after oral PA and THA test breakfast meal in healthy control subjects; type: in vivo, human
Description: (§1) Both whole post-absorptive serum and isolated chylomicron fractions of the serum are analyzed for fatty acid composition. Chylomicrons are isolated from plasma by centrifugation at d=1.006 g/ml for 30 minutes at 26,000 g (Hatch, F. T., et al., 1968; Adv. Lipid Res., 6:1-68). Total lipids are extracted from each specimen following the method of Bligh and Dyer (Bligh, E. G., et al., 1959; Can. J. Biochem., 37:911-917). Following transmethylation of the lipid extracts using BF3-methanol, fatty acid composition is determined using gas-liquid chromatographic (GLC) analysis using a Hewlett Packard GLC equipped with a flame ionization detector, an automatic 7673 sampler and […]×0.25 mm ID column composed of a 0.20 micron film of SP-2560 (Supelco, Bellefonte, Pa.) (Morrison, W., et al., 1964; J. Lipid Res. 5:600-608). The temperature is programmed to change from 140° C. to 240° C. at a rate of 4° C./minute. At the time of extraction, heptadecanoic methyl ester is added as an internal standard.
Healthy control subjects between 18 and 50 years of age were selected. Exclusion criteria included: any chronic illness known to affect nutrient absorption, body mass index (BMI) <21 or >30 kg/m^2 (generally accepted healthy adult ranges), therapy with lipid lowering drugs, diabetes mellitus (NIDDM and IDDM), disorders associated with altered energy metabolism (e.g., hypothyroidism) and disinterest in participating in all three dosing experiments. This adult age range was selected for several reasons: (a) adult subjects are likely to remain committed to all three components of the study; (b) adults will understand the need to provide reliable feedback on taste and tolerance of the test breakfast meal and the entire malabsorption test procedure; and (c) adult subjects are able to plan the experimental day for full cooperation with the multiple phlebotomy events from 0700 to 1500 hours.
Upon arrival at the study center, subjects had their weight and height measured and an experienced phlebotomist inserted a self-retaining intravenous catheter with a heparin lock for serial blood sampling. After initially drawing 2 milliliters of blood into a sterile syringe, the experimental blood sample (2 milliliters) was drawn and immediately stored in a 4-milliliter serum separator tube. Thereafter, the initial 2 milliliters of blood was infused back into the catheter followed by 2 milliliters of heparin flush. After the baseline blood samples were obtained, the subjects drank an approximately 8 to 12 ounce liquid test breakfast meal. This meal contained one to three doses of PA and THA in a random distribution. Subjects were asked to consume the test breakfast meal within five minutes. Thereafter, serial blood samples were obtained at regular intervals over a period ranging from 30 minutes to 24 hours. During the initial eight-hour period, subjects were permitted to ingest non-caloric and non-caffeinated beverages. A study protocol lunch of known fat content was provided and actual food intake was recorded. Ambulation was limited to maintain adherence to the 30 to 60 minute intervals in the blood sampling schedule. After completion of the blood sampling, the catheter was removed, a snack was offered, and the subjects were encouraged to consume a full meal. The lipid doses (mg/kg) of PA and THA used in this experiment were based on doses 10-fold higher than similar fats used to correct essential fatty acid deficiency in cystic fibrosis, and previous studies which used ^13C […] to qualitatively assess fat malabsorption in pancreatic disease (Rosenlund, M. L., et al., 1977;Pediatrics, 59:428-32; Wutzke, K. D., et al., 1999; J. Pediatr. Gastroenterol. Nutr., 29:148-54).
Four healthy control subjects were administered a dose of 30 mg/kg PA and 30 mg/kg THA in the digestible composition (a liquid breakfast shake) after a 12-hour fast. Blood was drawn at baseline before consumption of the shake and then every 30 minutes thereafter until hour 6. […]

[3] = MBT absorption of PA and HA prior to Orlistat in fifteen healthy subjects; type: in vivo, human; conditions: PA 2.5 grams and THA 8.0 grams, FIG. 10, 11
From the text: Fifteen healthy adult subject volunteers (9 women) 18 to 50 years of age were recruited through local advertisements. Exclusion criteria included: any chronic illness known to affect nutrient absorption, body mass index (BMI) of less than 21 or greater than 30 kg/m^2 (i.e., outside of generally accepted healthy adult ranges), therapy with lipid lowering drugs, diabetes mellitus (NIDDM, IDDM) and disorders associated with altered energy metabolism (e.g., hypothyroidism). This adult age range was selected because Orlistat is FDA approved in adults. In addition, adults are able to plan the experimental days for cooperation with four days of the research study diet, outpatient 72-hour stool collection and phlebotomy requirements. […]
Subjects underwent a 12-hour fast from 2100 hours on day #1 of the study. […] Upon arrival at the study center on the morning of day #2, subjects had their weight and height measured, and an experienced phlebotomist inserted a self-retaining intravenous catheter with a heparin lock for serial blood sampling. […] The number and timing of blood samples was determined by the experiments in Example 1, and was expected to be six or fewer samples over an eight-hour or less time period. […]

[4] = MBT serum levels of PA and HA in subjects with CF and pancreatic insufficiency on and off pancreatic enzymes; type: in vivo, human
Description: as §1
Subjects with CF and pancreatic insufficiency currently treated with pancreatic enzymes, aged greater than 8 years were recruited. Exclusion criteria included: forced expiratory volume of the lungs at 1 second (FEV1) <40%, a history of fibrosing colonopathy or significant bowel resection (>10 cm), mental retardation, significant neurological deficit, developmental disability and autism. Subjects are in their usual state of good health. This age range was selected because it includes children during active growth where information regarding degree of malabsorption leads to improved nutritional intervention and pancreatic enzyme therapy. Also, children greater than 8 years of age are mature enough to provide assent and feedback concerning acceptability and tolerance of the MBT.
In the experiments shown in FIGS. 12 through 15, three subjects with CF were given either 30 mg/kg PA and 60 mg/kg THA (2 subjects) or 30 mg/kg PA and 90 mg/kg THA (1 subject) in a digestible composition consisting of a liquid breakfast shake after a 12 hour fast. The subjects were tested while they were taking their usual doses of pancreatic enzymes and then were tested again (more than one week later) when they were not taking pancreatic enzymes. Blood was sampled at baseline and then at hourly intervals from 2 to 8 hours and then sampled again at 24 hours. Subjects were fed a prepared lunchtime meal with a known quantity of fat (80 grams). The individual results for fat absorption for the 3 subjects with CF on enzymes are presented in FIG. 12 for PA and FIG. 13 for HA. For the same 3 subjects with CF off enzymes, the results for fat absorption are presented in FIG. 14 for PA and FIG. 15 for HA.
Additional experiments were performed on six subjects with CF either on or off pancreatic enzyme treatment. The serum levels of PA and HA in these six subjects on and off pancreatic enzyme treatment are presented in FIG. 16 anf FIG. 17, respectively.

[5] = four healthy control subjects, 30 mg/kg PA and 60 mg/kg THA, FIG. 3A, 4, 5A
[6] = four healthy control subjects, 30 mg/kg PA and either 60 or 90 mg/kg THA oral, FIG. 1 model
[7] = subjects with CF on pancreatic enzymes

Row | SMILES | expected decrease in index of pancreatic enzymatic activity (ratio of normalized HA to normalized PA) after therapy with Orlistat ([1]; comparison before and after therapy with Orlistat, expected value of the model) | expected estimated pancreatic enzyme activity in the presence of Orlistat, relative to normal (unsuppressed) activity ([1]; fraction of absorbed HA versus fraction of absorbed PA, expected value of the model) | serum response of PA prior to versus after receiving Orlistat ([1]; healthy subjects, Orlistat 240 mg TID, PA 2.5 grams and THA 8.0 grams, FIG. 9) | delay before rise in serum concentration ([2]; four healthy control subjects, 30 mg/kg PA and 30 mg/kg THA, liquid breakfast shake after 12-hour fast, FIG. 2) [h] | time at which increase in serum level is evident / begins [2, 5] [h] | time of peak serum level [2, 5] [h] | time of peak serum level ([2]; four healthy control subjects, 30 mg/kg PA and 90 mg/kg THA, FIG. 6-8) [h] | peak serum level ([2]; four healthy control subjects, 30 mg/kg PA and either 60 or 90 mg/kg THA oral at baseline, FIG. 1 model) | time of peak serum level [2, 6] [h] | time post-dose before serum level rises [2, 6] | concentration at 8 h ([2]; human, serum, four healthy control subjects, 30 mg/kg PA and either 60 or 90 mg/kg THA oral, FIG. 1 model, read-out: serum level by eight hours post dose) [ng/mL] | time up to which serum response continued to increase (sharp decrease after) ([2]; six healthy volunteers, PA 2.5 grams and THA 5.0 or 8.0 grams, FIG. 5B) [h] | average absorption [3] | serum level response ([4]; subjects with CF off pancreatic enzymes) | delay before serum levels increased [4, 7] [h] | time of peak serum level [4, 7] | serum levels compared with healthy control subjects ([4]; subjects with CF taking pancreatic enzymes)
1 | CCCCCCCCCCC[C@@H](C[C@@H]1OC(=O)[C@H]1CCCCCC)OC(=O)[C@H](CC(C)C)NC=O [Orlistat] | approximately 70% | about 70% | similar | – | – | – | – | – | – | – | – | – | – | – | – | – | –
2 | CCCCCCCCCCCCCCCCC(=O)O [HA, heptadecanoic acid] | – | – | – | 3 to 4 | 3 | 6 | 6 | approximately 3 mg/dL | 6 | two | ~10000 | 6 | approximately 45% | no increase in serum levels | 2 | approximately 6 hours | lower

Source: patent US20030086869A1, “Methods and kits for diagnosing a pancreatic-based fat malabsorption disorder” (priority 2001, published 2003)
